Like-named read-outs stand apart in the source and are kept apart here.
What was measured:
Experiment in all cases: Glasshouse assay for herbicidal activity (pre- and post-emergence), percentage phytotoxicity
Format in all cases: in vivo
[1] = test system: Avena fatua (AVEFA); conditions: Avena fatua
How it was run: (§1)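 Pot-grown, standard soil. PRE: spray 1 d post-sowing; POST: ~12 d. Glasshouse 24/18 °C (warm spp.) / 20/16 °C (cool spp.), 16 h light, 65% RH, watered 2×/day. Visual % damage, 20 DAA PRE, 15 DAA POST.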

[2] = test system: Echinochloa crus-galli (ECHCG); conditions: Echinochloa crus-galli
How it was run: as §1

[3] = test system: Alopecurus myosuroides (ALOMY); conditions: Alopecurus myosuroides
How it was run: as §1

[4] = test system: Lolium perenne (LOLPE); conditions: Lolium perenne
How it was run: as §1

[5] = post-emergence, 360 h, POST-emergence, rate 250 g/ha, visual score 15 DAA (100%=total damage, 0%=no damage), read-out: Post-emergence herbicidal activity (percentage phytotoxicity) AVEFA POST
[6] = pre-emergence, 480 h, PRE-emergence, rate 250 g/ha, visual score 20 DAA (100%=total damage, 0%=no damage), read-out: Pre-emergence herbicidal activity (percentage phytotoxicity) AVEFA PRE
[7] = post-emergence, 360 h, POST-emergence, rate 250 g/ha, visual score 15 DAA (100%=total damage, 0%=no damage), read-out: Post-emergence herbicidal activity (percentage phytotoxicity) ECHCG POST
[8] = pre-emergence, 480 h, PRE-emergence, rate 250 g/ha, visual score 20 DAA (100%=total damage, 0%=no damage), read-out: Pre-emergence herbicidal activity (percentage phytotoxicity) ECHCG PRE
[9] = post-emergence, 360 h, POST-emergence, rate 250 g/ha, visual score 15 DAA (100%=total damage, 0%=no damage), read-out: Post-emergence herbicidal activity (percentage phytotoxicity) ALOMY POST
[10] = pre-emergence, 480 h, PRE-emergence, rate 250 g/ha, visual score 20 DAA (100%=total damage, 0%=no damage), read-out: Pre-emergence herbicidal activity (percentage phytotoxicity) ALOMY PRE
[11] = post-emergence, 360 h, POST-emergence, rate 250 g/ha, visual score 15 DAA (100%=total damage, 0%=no damage), read-out: Post-emergence herbicidal activity (percentage phytotoxicity) LOLPE POST
[12] = pre-emergence, 480 h, PRE-emergence, rate 250 g/ha, visual score 20 DAA (100%=total damage, 0%=no damage), read-out: Pre-emergence herbicidal activity (percentage phytotoxicity) LOLPE PRE
[13] = post-emergence, 360 h, Rate 250 g/ha, post-emergence, visual assessment 15 DAA, 100%=total damage, 0%=no damage, read-out: Post-emergence herbicidal activity (percentage phytotoxicity) AVEFA POST
[14] = pre-emergence, 480 h, Rate 250 g/ha, pre-emergence, visual assessment 20 DAA, 100%=total damage, 0%=no damage, read-out: Pre-emergence herbicidal activity (percentage phytotoxicity) AVEFA PRE
[15] = post-emergence, 360 h, Rate 250 g/ha, post-emergence, visual assessment 15 DAA, 100%=total damage, 0%=no damage, read-out: Post-emergence herbicidal activity (percentage phytotoxicity) ECHCG POST
[16] = pre-emergence, 480 h, Rate 250 g/ha, pre-emergence, visual assessment 20 DAA, 100%=total damage, 0%=no damage, read-out: Pre-emergence herbicidal activity (percentage phytotoxicity) ECHCG PRE
[17] = post-emergence, 360 h, Rate 250 g/ha, post-emergence, visual assessment 15 DAA, 100%=total damage, 0%=no damage, read-out: Post-emergence herbicidal activity (percentage phytotoxicity) ALOMY POST
[18] = pre-emergence, 480 h, Rate 250 g/ha, pre-emergence, visual assessment 20 DAA, 100%=total damage, 0%=no damage, read-out: Pre-emergence herbicidal activity (percentage phytotoxicity) ALOMY PRE
[19] = post-emergence, 360 h, Rate 250 g/ha, post-emergence, visual assessment 15 DAA, 100%=total damage, 0%=no damage, read-out: Post-emergence herbicidal activity (percentage phytotoxicity) LOLPE POST
[20] = pre-emergence, 480 h, Rate 250 g/ha, pre-emergence, visual assessment 20 DAA, 100%=total damage, 0%=no damage, read-out: Pre-emergence herbicidal activity (percentage phytotoxicity) LOLPE PRE
[21] = post-emergence, 360 h, 250 g/ha, post-emergence, 15 DAA, visual assessment (100%=total damage, 0%=no damage), read-out: Post-emergence herbicidal activity (percentage phytotoxicity) AVEFA POST
[22] = pre-emergence, 480 h, 250 g/ha, pre-emergence, 20 DAA, visual assessment (100%=total damage, 0%=no damage), read-out: Pre-emergence herbicidal activity (percentage phytotoxicity) AVEFA PRE
[23] = post-emergence, 360 h, 250 g/ha, post-emergence, 15 DAA, visual assessment (100%=total damage, 0%=no damage), read-out: Post-emergence herbicidal activity (percentage phytotoxicity) ECHCG POST
[24] = pre-emergence, 480 h, 250 g/ha, pre-emergence, 20 DAA, visual assessment (100%=total damage, 0%=no damage), read-out: Pre-emergence herbicidal activity (percentage phytotoxicity) ECHCG PRE
[25] = post-emergence, 360 h, 250 g/ha, post-emergence, 15 DAA, visual assessment (100%=total damage, 0%=no damage), read-out: Post-emergence herbicidal activity (percentage phytotoxicity) ALOMY POST
[26] = pre-emergence, 480 h, 250 g/ha, pre-emergence, 20 DAA, visual assessment (100%=total damage, 0%=no damage), read-out: Pre-emergence herbicidal activity (percentage phytotoxicity) ALOMY PRE
[27] = post-emergence, 360 h, 250 g/ha, post-emergence, 15 DAA, visual assessment (100%=total damage, 0%=no damage), read-out: Post-emergence herbicidal activity (percentage phytotoxicity) LOLPE POST
[28] = pre-emergence, 480 h, 250 g/ha, pre-emergence, 20 DAA, visual assessment (100%=total damage, 0%=no damage), read-out: Pre-emergence herbicidal activity (percentage phytotoxicity) LOLPE PRE

| Structure (SMILES) | pest or weed control at 250 g/ha [1, 5] [%] | pest or weed control at 250 g/ha [1, 6] [%] | pest or weed control at 250 g/ha [2, 7] [%] | pest or weed control at 250 g/ha [2, 8] [%] | pest or weed control at 250 g/ha [3, 9] [%] | pest or weed control at 250 g/ha [3, 10] [%] | pest or weed control at 250 g/ha [4, 11] [%] | pest or weed control at 250 g/ha [4, 12] [%] | pest or weed control at 250 g/ha [1, 13] [%] | pest or weed control at 250 g/ha [1, 14] [%] | pest or weed control at 250 g/ha [2, 15] [%] | pest or weed control at 250 g/ha [2, 16] [%] | pest or weed control at 250 g/ha [3, 17] [%] | pest or weed control at 250 g/ha [3, 18] [%] | pest or weed control at 250 g/ha [4, 19] [%] | pest or weed control at 250 g/ha [4, 20] [%] | other results |
| --- | --- | --- | --- | --- | --- | --- | --- | --- | --- | --- | --- | --- | --- | --- | --- | --- | --- |
| Cc1cc(C)c(C2C(=O)CC(CC(=O)NC3COC3)C2=O)c(C)c1 (stereo not drawn) [Compound A182] |  |  |  |  |  |  |  |  |  |  |  |  |  |  |  |  | pest or weed control at 250 g/ha ([1]; post-emergence, 360 h, post-emergence, 250 g/ha, 15 DAA, visual score (100%=total damage; 0%=no damage), read-out: AVEFA POST herbicidal activity (percentage phytotoxicity)): 70%; pest or weed control at 250 g/ha ([1]; pre-emergence, 480 h, pre-emergence, 250 g/ha, 20 DAA, visual score (100%=total damage; 0%=no damage), read-out: AVEFA PRE herbicidal activity (percentage phytotoxicity)): 20%; pest or weed control at 250 g/ha ([2]; post-emergence, 360 h, post-emergence, 250 g/ha, 15 DAA, visual score (100%=total damage; 0%=no damage), read-out: ECHCG POST herbicidal activity (percentage phytotoxicity)): 80%; pest or weed control at 250 g/ha ([2]; pre-emergence, 480 h, pre-emergence, 250 g/ha, 20 DAA, visual score (100%=total damage; 0%=no damage), read-out: ECHCG PRE herbicidal activity (percentage phytotoxicity)): 0%; pest or weed control at 250 g/ha ([3]; post-emergence, 360 h, post-emergence, 250 g/ha, 15 DAA, visual score (100%=total damage; 0%=no damage), read-out: ALOMY POST herbicidal activity (percentage phytotoxicity)): 70%; pest or weed control at 250 g/ha ([3]; pre-emergence, 480 h, pre-emergence, 250 g/ha, 20 DAA, visual score (100%=total damage; 0%=no damage), read-out: ALOMY PRE herbicidal activity (percentage phytotoxicity)): 70%; pest or weed control at 250 g/ha ([4]; post-emergence, 360 h, post-emergence, 250 g/ha, 15 DAA, visual score (100%=total damage; 0%=no damage), read-out: LOLPE POST herbicidal activity (percentage phytotoxicity)): 40%; pest or weed control at 250 g/ha ([4]; pre-emergence, 480 h, pre-emergence, 250 g/ha, 20 DAA, visual score (100%=total damage; 0%=no damage), read-out: LOLPE PRE herbicidal activity (percentage phytotoxicity)): 70% |
| Cc1cc(-n2cc(Cl)cn2)cc(C)c1C1C(=O)CC(CC(=O)NCc2cccc(F)c2)C1=O (stereo not drawn) [Compound B223] | 100 | 70 | 100 | 90 | 90 | 90 | 80 | 80 |  |  |  |  |  |  |  |  |  |
| Cc1cc(C)c(C2=C(OC(=O)C(C)(C)C)CC(CC(=O)NC3COC3)C2=O)c(C)c1 (stereo not drawn) [Compound P13] |  |  |  |  |  |  |  |  | 70 | 10 | 80 | 20 | 80 | 50 | 70 | 10 |  |
| CCc1cc(C)cc(C)c1C1C(=O)CC(CC(=O)NC(C)C)C1=O (stereo not drawn) [Compound B255] | 100 | 80 | 100 | 100 | 100 | 100 | 100 | 100 |  |  |  |  |  |  |  |  |  |
| C=C(F)CNC(=O)CC1CC(=O)C(c2c(C)cc(-c3ncc(F)cn3)cc2C)C1=O (stereo not drawn) [Compound B294] | 100 | 100 | 100 | 100 | 100 | 90 | 100 | 100 |  |  |  |  |  |  |  |  |  |
| CONC(=O)CC1CC(=O)C(c2c(C)cc(C)cc2C)C1=O (stereo not drawn) [Compound B96] |  |  |  |  |  |  |  |  |  |  |  |  |  |  |  |  | pest or weed control at 250 g/ha [1, 21]: 60%; pest or weed control at 250 g/ha [1, 22]: 0%; pest or weed control at 250 g/ha [2, 23]: 90%; pest or weed control at 250 g/ha [2, 24]: 30%; pest or weed control at 250 g/ha [3, 25]: 20%; pest or weed control at 250 g/ha [3, 26]: 0%; pest or weed control at 250 g/ha [4, 27]: 80%; pest or weed control at 250 g/ha [4, 28]: 80% |
| Cc1ccnc(CNC(=O)CC2CC(=O)C(c3c(C)cc(C)cc3C)C2=O)c1 (stereo not drawn) [Compound B66] |  |  |  |  |  |  |  |  |  |  |  |  |  |  |  |  | pest or weed control at 250 g/ha [1, 21]: 80%; pest or weed control at 250 g/ha [1, 22]: 0%; pest or weed control at 250 g/ha [2, 23]: 80%; pest or weed control at 250 g/ha [2, 24]: 90%; pest or weed control at 250 g/ha [3, 25]: 90%; pest or weed control at 250 g/ha [3, 26]: 90%; pest or weed control at 250 g/ha [4, 27]: 90%; pest or weed control at 250 g/ha [4, 28]: 90% |
| Cc1cc(-c2ccc(F)cn2)cc(C)c1C1C(=O)CC(CC(=O)NCc2cccc(F)c2)C1=O (stereo not drawn) [Compound B383] |  |  |  |  |  |  |  |  | 100 | 90 | 90 | 100 | 100 | 90 | 90 | 100 |  |
| COCC(C)(C)NC(=O)CC1CC(=O)C(c2c(C)cc(-c3ccc(F)cn3)cc2C)C1=O (stereo not drawn) [Compound B389] |  |  |  |  |  |  |  |  | 100 | 90 | 100 | 100 | 100 | 90 | 90 | 100 |  |
| C#CCN(C)C(=O)CC1CC(=O)C(c2c(C)cc(C)cc2CC)C1=O (stereo not drawn) [Compound B260] | 100 | 80 | 100 | 100 | 100 | 90 | 100 | 100 |  |  |  |  |  |  |  |  |  |
| Cc1cc(-c2ncc(Cl)cn2)cc(C)c1C1=C(OC(=O)N2CCCC2)CC(CC(=O)NC(C)(C)C)C1=O (stereo not drawn) [Compound P8] |  |  |  |  |  |  |  |  | 80 | 10 | 90 | 70 | 70 | 30 | 70 | 50 |  |
| CCN(C)C(=O)CC1CC(=O)C(c2c(C)cc(-c3ccc(F)cn3)cc2C)C1=O (stereo not drawn) [Compound B392] |  |  |  |  |  |  |  |  | 100 | 100 | 100 | 100 | 90 | 100 | 90 | 100 |  |

From US10206394B2, “Herbicidal compounds” (Syngenta Participations AG, priority 2014, dated 2019)
